Reference: ChEMBL document CHEMBL1201862, “PubChem BioAssay data set” (2004)
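Following 48 hours of exposure in 96-well plates, responses at five concentrations were used to interpolate endpoints linearly. GI50 marks 50% less growth.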 Active and inactive are the calls of the source. Cut-off read from the data, not from the text of the source: active = GI50 up to about 1.1 µM and inactive = higher.

What was measured:
Assay in all cases: growth of human tumour cells (NCI), 48 h
A549 = tested on: A549
CCRF-CEM = tested on: CCRF-CEM
COLO 205 = tested on: COLO 205
EKVX = tested on: EKVX
HCC 2998 = tested on: HCC 2998
HCT-116 = tested on: HCT-116
HCT-15 = tested on: HCT-15
KM12 = tested on: KM12
LOX IMVI = tested on: LOX IMVI
MDA-MB-435 = tested on: MDA-MB-435
MOLT-4 = tested on: MOLT-4
NCI-H460 = tested on: NCI-H460
OVCAR-3 = tested on: OVCAR-3
RXF 393 = tested on: RXF 393
SK-MEL-28 = tested on: SK-MEL-28
SK-OV-3 = tested on: SK-OV-3
SNB-75 = tested on: SNB-75
TK-10 = tested on: TK-10
A498 = tested on: A498

SMILES	GI50 (A549)	GI50 (CCRF-CEM)	GI50 (COLO 205)	GI50 (EKVX)	GI50 (HCC 2998)	GI50 (HCT-116)	GI50 (HCT-15) [µM]	GI50 (KM12)	GI50 (LOX IMVI)	GI50 (MDA-MB-435)	GI50 (MOLT-4)	GI50 (NCI-H460)	GI50 (OVCAR-3)	GI50 (RXF 393)	GI50 (SK-MEL-28)	GI50 (SK-OV-3)	GI50 (SNB-75)	GI50 (TK-10)	GI50 (A498)
CC1=C(C(=O)OCCc2ccc([N+](=O)[O-])cc2)C(c2ccccc2C(F)(F)F)C(C(=O)OC(C)C)=C(C)N1 (stereo not given)	2.81 µM (inactive)	2.84 µM (inactive)	2.97 µM (inactive)	2.05 µM (inactive)	4.92 µM (inactive)	2.92 µM (inactive)	3.78	2.88 µM (inactive)	2.96 µM (inactive)	3.84 µM (inactive)	2.08 µM (inactive)	2.47 µM (inactive)	3.48 µM (inactive)	1.87 µM (inactive)	4.89 µM (inactive)	3.97 µM (inactive)	4.04 µM (inactive)	3.78 µM (inactive)	–
Cc1csc2nc(-c3ccc(Cl)c([N+](=O)[O-])c3)c(/C=N/NC(=N)N)n12	1.83 µM (inactive)	1.01 µM (active)	1.15 µM (inactive)	1.49 µM (inactive)	–	1.68 µM (inactive)	1.66	1.75 µM (inactive)	1.51 µM (inactive)	1.69 µM (inactive)	–	1.78 µM (inactive)	1.96 µM (inactive)	1.63 µM (inactive)	1.82 µM (inactive)	1.84 µM (inactive)	1.57 µM (inactive)	2.2 µM (inactive)	1.51 µM (inactive)
Cc1nc(Cc2n[nH]c(C)n2)n[nH]1	> 100 µM (inactive)	> 100 µM (inactive)	> 100 µM (inactive)	> 100 µM (inactive)	> 100 µM (inactive)	> 100 µM (inactive)	> 100	> 100 µM (inactive)	> 100 µM (inactive)	> 100 µM (inactive)	> 100 µM (inactive)	–	> 100 µM (inactive)	> 100 µM (inactive)	–	> 100 µM (inactive)	> 100 µM (inactive)	> 100 µM (inactive)	–
C=CCCCCCCC#CCCCCCCCCCC[C@@H]1C(=O)O[C@H](C)[C@@H]1O.CCCCCCCCC#CCCCCCCCCCC[C@@H]1C(=O)O[C@H](C)[C@@H]1O	14.1 µM (inactive)	–	24.8 µM (inactive)	16.8 µM (inactive)	23.6 µM (inactive)	16.2 µM (inactive)	20.2	10.1 µM (inactive)	12.9 µM (inactive)	–	12.6 µM (inactive)	11.7 µM (inactive)	20.2 µM (inactive)	11.4 µM (inactive)	24 µM (inactive)	36.6 µM (inactive)	16.7 µM (inactive)	15.7 µM (inactive)	55.3 µM (inactive)
CCOC(=O)C1C(=S)NC(=O)C1C#N (stereo not given)	> 100 µM (inactive)	> 100 µM (inactive)	> 100 µM (inactive)	> 100 µM (inactive)	> 100 µM (inactive)	–	> 100	> 100 µM (inactive)	> 100 µM (inactive)	–	> 100 µM (inactive)	> 100 µM (inactive)	> 100 µM (inactive)	> 100 µM (inactive)	> 100 µM (inactive)	> 100 µM (inactive)	> 100 µM (inactive)	> 100 µM (inactive)	–
O=c1[nH]ncc2[nH]c3c(c12)CCc1ccccc1-3	29 µM (inactive)	31.5 µM (inactive)	13.2 µM (inactive)	2.22 µM (inactive)	–	24.7 µM (inactive)	30.8	28.2 µM (inactive)	22.5 µM (inactive)	24.9 µM (inactive)	24.3 µM (inactive)	28.2 µM (inactive)	28.2 µM (inactive)	16.6 µM (inactive)	39.9 µM (inactive)	24.6 µM (inactive)	13 µM (inactive)	27.6 µM (inactive)	27.7 µM (inactive)
N#CCOc1cccc(C2(N3CC=CCC3)CCCCC2)c1	> 100 µM (inactive)	42.3 µM (inactive)	> 100 µM (inactive)	> 100 µM (inactive)	–	> 100 µM (inactive)	> 100	> 100 µM (inactive)	97.9 µM (inactive)	> 100 µM (inactive)	56.6 µM (inactive)	–	> 100 µM (inactive)	–	> 100 µM (inactive)	> 100 µM (inactive)	–	> 100 µM (inactive)	> 100 µM (inactive)
COc1ccc(-c2cc(=O)c3ccc(O)cc3o2)c(OC)c1OC	55.7 µM (inactive)	42.8 µM (inactive)	95.9 µM (inactive)	87.3 µM (inactive)	48.8 µM (inactive)	51.9 µM (inactive)	–	71.1 µM (inactive)	60.7 µM (inactive)	–	–	–	41.9 µM (inactive)	28.9 µM (inactive)	64.3 µM (inactive)	90.6 µM (inactive)	28.7 µM (inactive)	78.3 µM (inactive)	–
CN1C(=O)C(c2c[nH]c3ccccc23)N(C)C(=O)C1c1c[nH]c2ccccc12 (stereo not given)	> 100 µM (inactive)	> 100 µM (inactive)	> 100 µM (inactive)	> 100 µM (inactive)	> 100 µM (inactive)	> 100 µM (inactive)	> 100	> 100 µM (inactive)	> 100 µM (inactive)	> 100 µM (inactive)	> 100 µM (inactive)	> 100 µM (inactive)	> 100 µM (inactive)	46.9 µM (inactive)	> 100 µM (inactive)	> 100 µM (inactive)	33.8 µM (inactive)	> 100 µM (inactive)	–
O=C(O)c1ccc2c(c1C(=O)O)C(=O)OC2(c1ccc(O)cc1)c1ccc(O)cc1	> 100 µM (inactive)	> 100 µM (inactive)	> 100 µM (inactive)	> 100 µM (inactive)	–	> 100 µM (inactive)	> 100	> 100 µM (inactive)	> 100 µM (inactive)	> 100 µM (inactive)	> 100 µM (inactive)	> 100 µM (inactive)	> 100 µM (inactive)	> 100 µM (inactive)	> 100 µM (inactive)	> 100 µM (inactive)	> 100 µM (inactive)	> 100 µM (inactive)	> 100 µM (inactive)
C/N=C(\N)N/N=C(\C)c1ccc2oc3ccc(/C(C)=N/N/C(N)=N/C)cc3c2c1	2.86 µM (inactive)	2.39 µM (inactive)	3.27 µM (inactive)	4.24 µM (inactive)	2 µM (inactive)	2.79 µM (inactive)	> 23	3.16 µM (inactive)	2.56 µM (inactive)	2.92 µM (inactive)	0.805 µM (active)	1.98 µM (inactive)	2.64 µM (inactive)	–	3.93 µM (inactive)	3.16 µM (inactive)	–	4.38 µM (inactive)	–
Cc1cc(C)c2c(SCc3ccc(Cl)cc3Cl)nc(N)nc2n1	36.3 µM (inactive)	> 100 µM (inactive)	34.8 µM (inactive)	> 100 µM (inactive)	–	27 µM (inactive)	> 100	> 100 µM (inactive)	28.9 µM (inactive)	83 µM (inactive)	–	21.7 µM (inactive)	20.6 µM (inactive)	> 100 µM (inactive)	> 100 µM (inactive)	> 100 µM (inactive)	58.6 µM (inactive)	17.6 µM (inactive)	> 100 µM (inactive)
